The text below walks through data of patent publication US20170199175A1, “DEVICE AND METHOD FOR ASSESSING CELL CONTRACTION” (The Governing Council of the University of Toronto, priority 2014, published 2017).

Entries after “also recorded” stand apart in the source; their conditions may differ.

Experiment [1] has as its system hES2-derived cardiomyocytes. The experiment can be described thus: Wrinkling-based contraction analysis of periodically contracting cardiomyocyte colonies on silicone elastomer film. The following applies: live treatment in three concentrations (high, medium, low): ouabain and nifidepine 0.3, 3, 30 μM; isoproterenol and blebbistatin 0.1, 1, 10 μM. The format is cell-based, human. On the procedure:
To meet standard requirements on product shelf life and ease-of-shipping, the surface treatment method was refined to provide the film surface with a dry layer of adhesive protein. The improved treatment process (“APTES/EDAC”) comprises sequential oxidation with plasma oxygen, 1% APTES for 90 min, 100 μg/ml 1-Ethyl-3-(3-dimethylaminopropyl) carbodiimide (EDAC) for 10 min (to replace the previous paraformaldehyde step), protein wet coating, and air drying. Fibronectin and gelatin were used as most widely applied proteins to promote cardiomyocyte adhesion.
The number of beating colonies was at least 20-30/well across all protein coatings following APTES/EDAC treatment but <10 beating colonies/well without APTES/EDAC functionalization (FIG. 17C). APTES/EDAC functionalization obtained wrinkles which were visible in ˜50% of all beating colonies (FIG. 17D). APTES/EDAC treated surfaces with fibronectin (2 μg/ml) and gelatin (2 and 20 μg/ml) coating were selected to optimize cell densities for contraction analysis. Cardiomyocyte seeding densities were reduced from 50,000 to 25,000, 10,000 and 5,000 cells/cm^2 and wrinkling percentages were quantified. With cell density adaptation, the percentage of wrinkling among beating colonies reached 80-90% across all protein coatings with 10,000-25,000 cells/cm^2. […] Too low density reduced the number of beating colonies and percentage of wrinkling cells (FIG. 17E). For all further experiments, the plasma oxidized and APTES/EDAC-treated biocompatible silicone elastomers of 96-wells were coated with gelatin at a concentration of 2 μg/ml and provided with 10,000 cells/cm^2 before wrinkling was assessed after 2 days.
Cardiomyocyte contraction was assessed by recording image sequences over at least 15 s with an image acquisition rate of 10 frames/s. Acquisition was performed well-by-well on four image fields per well using the 10× objective of an inverted microscope with motorized stage and fully automated stage/acquisition control. The setup was chosen to provide conditions equivalent to commercially available HTS imaging stations. […] When comparing the signals generated by contracting cardiomyocytes on films with the competitive method of shape analysis on stiff culture substrates, wrinkling analysis delivered a 10-20-fold higher signal (FIG. 18).
Referring to FIG. 28, periodically contracting cardiomyocyte colonies were recorded and live treated with cardiomyocyte affecting drugs in three concentrations (high, medium, low). Ouabain (0.3, 3, 30 μM) increased contraction amplitude at unchanged frequency, nifidepine (0.3, 3, 30 μM) decreased contraction amplitude and increased frequency, isoproterenol (0.1, 1, 10 μM) increased contraction frequency and amplitude, and blebbistatin (0.1, 1, 10 μM) decreased contraction amplitude and frequency.

A further experiment has as its system cardiomyocytes. The following applies: benchmark drugs, Yokoo et al. 2009 / Gai et al. 2009; cited from earlier work.
The subject of the next experiment is fibroblasts. In words: Wrinkling of PDMS silicone elastomer film by contractile fibroblasts (live videomicroscopy, kymograph analysis). The experiment is classed as cell-based, rat. The following applies: 1:100 PDMS film, plasma + APTES + paraformaldehyde + collagen; LPA 10 μM, cytochalasin D 1-10 μM, Y27632 10 μM. As to the method:
Primary rat lung myofibroblasts and subcutaneous fibroblasts (SCF) were derived from explants and cultured from passage 2-7. All cells, including lineage aortic smooth muscle cells (A7r5) and rat embryonic fibroblasts (REF-52) were cultured in DMEM (Gibco-BRL, Basel, CH), containing 10% FCS and antibiotics. Cytochalasin D (Sigma) was used at 1-10 μM, blebbistatin (Calbiochem, Darmstadt, Germany) at 10 μM, Y27632 (Calbiochem) at 10 μM and lysophosphatic acid (LPA) (Sigma) at 10 μM. For FA maturation analysis, REF-52 were stably transfected with β3 integrin-GFP (16), full-length GFP-paxillin (Zamir et al, 2000), and α-SMA-GFP (Clement et al., 2005), using Fugene 6 (Roche, Reinach, CH).
To reduce pipetting errors and to ameliorate the mixing process, curing agent can be pre-diluted in toluene without changing the elastic properties of the polymerized material. PDMS films of 200 μm thickness were produced by distributing the respective volume with a pipette tip onto glass coverslips (#0, Karl Hecht KG, Sondheim, Germany) at the bottom of homemade observation chambers or on standard culture dishes. Substrates were degassed in a desiccator and polymerized for minimum 3 d at RT. Polymerized films were kept at RT for up to two months without changing compliance. Alternative polymerization protocols using higher curing temperatures are possible but will have an influence on the elastic modulus of the film (Lee et al., 2004). […]
Confocal images of fixed specimen were acquired using a 40× oil immersion objective (HC PL APO, NA 1.25-0.75, Leica, Glattbrugg, CH), mounted on an inverted confocal microscope (DM IRE2 with a laser scanning confocal head TCS SP2 AOBS, Leica). […] Phase contrast sequences were taken at a rate of 1 frame/min and live fluorescence images every 30 min using 20× (Plan-Apochromat, Ph2, NA 0.5) and 40× (Plan-Neofluar, Ph3, NA 1.3 oil immersion, Zeiss) objectives. […]

`COC(=O)C1=C(C)NC(C)=C(C(=O)OC)C1c1ccccc1[N+](=O)[O-]` [nifidepine]: in experiment [1], the “contraction (beating) amplitude” value is “decreased” and the “contraction (beating) frequency” value was “increased”. The corresponding values for `Cc1ccc2c(c1)C(=O)C1(O)CCN(c3ccccc3)C1=N2` (stereo not drawn) [blebbistatin] are “decreased” and “decreased”. As for `O=C(NCC1CCCCN1)c1cc(OCC(F)(F)F)ccc1OCC(F)(F)F` (stereo not drawn) [felcainide], the frequency of beating entry in the experiment with cardiomyocytes is reported as “decrease”. Turning to `C[C@@H]1O[C@@H](O[C@H]2C[C@@H](O)[C@]3(CO)[C@H]4[C@H](O)C[C@]5(C)[C@@H](C6=CC(=O)OC6)CC[C@]5(O)[C@@H]4CC[C@]3(O)C2)[C@H](O)[C@H](O)[C@H]1O` [Ouabain], in experiment [1], the “contraction (beating) amplitude” value was “increased” and the “contraction (beating) frequency” value is “unchanged”.

As to lysophosphatic acid [LPA], in the experiment on fibroblasts, the “cell contraction (number and extension of wrinkles)” value (“cell contraction” below) is “increased cell contraction”.

Turning to `CCN(CC)CCNC(=O)c1ccc(N)cc1` [procainamide], the frequency of beating entry in the experiment on cardiomyocytes is listed as “decrease”.

Take `C=C1[C@@H](C)[C@H]2[C@H](Cc3ccccc3)NC(=O)[C@]23[C@H](OC(C)=O)/C=C/[C@@](C)(O)C(=O)[C@@H](C)C/C=C/[C@H]3[C@@H]1O` [cytochalasin D, Cytochalasin D]: in the experiment on fibroblasts, the “cell contraction” value was “completely abolished; also recorded: loss of cell contraction”. Take `COc1ccc([C@@H]2Sc3ccccc3N(CCN(C)C)C(=O)[C@@H]2OC(C)=O)cc1` [diltiazem]: the frequency of beating result in the experiment with cardiomyocytes is “decrease”. Turning to `COc1ccc(CCN(C)CCCC(C#N)(c2ccc(OC)c(OC)c2)C(C)C)cc1OC` (stereo not drawn) [verapamil], the frequency of beating entry in the experiment with cardiomyocytes is given as “decrease”.

With `CNCC(O)c1ccc(O)c(O)c1` (stereo not drawn) [adrenaline], the frequency of beating result in the experiment on cardiomyocytes is recorded as “increase”. In the case of `CNC[C@H](O)c1cccc(O)c1` [phenylephrine], the frequency of beating entry in the experiment on cardiomyocytes is listed as “increase”.

For `CC(C)NCC(O)c1ccc(O)c(O)c1` (stereo not drawn) [isoproterenol], in the experiment on cardiomyocytes, the frequency of beating result is “increase”. In addition, in experiment [1], the “contraction (beating) amplitude” value was “increased” and the “contraction (beating) frequency” value is “increased”. Turning to `C[C@@H](N)[C@H]1CC[C@H](C(=O)Nc2ccncc2)CC1` [Y27632], the “cell contraction” value in the experiment with fibroblasts was “completely abolished”.
